Results as given in BindingDB's records for doi:10.1080/14756360109162375 (University of North Carolina, 2001).

biological target: T1, N(4)-(beta-N-acetylglucosaminyl)-L-asparaginase (Homo sapiens, UniProt P20933); assay: Inhibition Assay; details: pH 5.8; 37 °C
T1 sequence (P20933 whole entry): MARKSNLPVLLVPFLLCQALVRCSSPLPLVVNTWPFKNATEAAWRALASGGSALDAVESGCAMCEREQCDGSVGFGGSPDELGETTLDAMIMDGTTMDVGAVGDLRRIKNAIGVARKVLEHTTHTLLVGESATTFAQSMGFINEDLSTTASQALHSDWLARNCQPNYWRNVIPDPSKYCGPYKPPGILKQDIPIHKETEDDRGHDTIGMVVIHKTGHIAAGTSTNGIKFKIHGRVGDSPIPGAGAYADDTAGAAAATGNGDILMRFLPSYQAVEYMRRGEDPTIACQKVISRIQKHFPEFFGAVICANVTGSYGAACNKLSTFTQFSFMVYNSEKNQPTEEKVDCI
Experimental: Glycosylasparaginase activity was measured in citrate-phosphate buffer at pH 5.8 at 37 C. N-Acetyl-D-glucosamine released during the reaction was measured using the Morgan-Elson assay.

SMILES | Ki
O=C(O)CC(Br)C(=O)O [L-2-bromosuccinic acid, 4] | 2700 µM
CC(=O)NC1C(NC(=O)CCl)OC(CO)C(O)C1O (stereo not given) [GlcNAc-Asn analogue, 11] | 640 µM
O=C(O)CC(Cl)C(=O)O [L-2-Chlorosuccinic acid, 3] | 7700 µM
CC(CC(=O)O)C(=O)O [D,L-2-Methylsuccinic acid, 5] | 700 µM
N[C@H](CP(=O)(O)O)C(=O)O [CAS_23052-80-4] | 900 µM
CC(=O)NC1C(NC(=O)CN)OC(CO)C(O)C1O (stereo not given) [GlcNAc-Asn analogue, 10] | 750 µM

The remaining lines, values ahead:

Ki | SMILES
5000 µM | O=C(O)CCC(=O)O [Succinic acid, 6]
1400 µM | N[C@H](CS(=O)(=O)O)C(=O)O [L-cysteic acid]
600 µM | N[C@@H](CC(=O)O)C(=O)O [L-Aspartic acid, 2]
560 µM | CC(=O)NC1C(NC(=O)CBr)OC(CO)C(O)C1O (stereo not given) [GlcNAc-Asn analogue, 12]
